Source: US7935729B2, “Use of triglyceride oils containing γ-linolenic acid residues and linoleic acid residues for the treatment of neurodegenerative disease” (BTG International Limited, priority 2003, dated 2011)
“Also recorded” adds a separate entry of the source. Marks after values point to notes of the source that are not given here.

Assays:
[1] = system: MOG-induced CREAE in SJL Mice; experiment: MOG-induced CREAE in SJL mice, molecular species comparison of GLA; type: in vivo; conditions: for Mean Clinical Score / No. with EAE: 100 μl of test lipid
Excerpt: γ-Linolenic acid (18:3n -6, GLA) is known to be rapidly converted to longer-chain omega-6 polyunsaturated fatty acids dihomo-γ-linolenic acid and arachidonic acid in vivo (Phylactos et al 1994, Harbige et al 1995, 2000). Therefore to increase the level of membrane long chain omega-6 fatty acids in MS the inventors have reviewed results obtained with several GLA-containing oils:- both fungal (from Mucor javanicus) and plant (Borago officianalis), Evening primrose Oenothera spp. or Blackcurrant Ribes spp) as well as a synthetic tri-GLA oil as GLA delivery systems in an in vivo experimental animal model of MS known as chronic relapsing experimental autoimmune encephalomyelitis (CREAE).
Experimental autoimmune encephalomyelitis (EAE) is an autoimmune inflammatory disease of the CNS, with or without demyelination, inducible in rodents and other mammalian species. […] Chronic relapsing and demyelinating EAE models (CREAE), which are characterised by demyelination and relapse phases, are therefore currently the animal models of choice for MS research (Fazakerley 1997).

[2] = system: EAE; conditions: guinea-pig (Meade et al 1978); cited from earlier work
[3] = system: multiple sclerosis patients; conditions: about 20 g/day; cited from earlier work
[4] = system: EAE; conditions: depending on dose (Harbige et al); cited from earlier work

SMILES: CCCCC/C=C\C/C=C\C/C=C\CCCCC(=O)OCC [EE-GLA, Ethyl-Ester-GLA]
- Mean Clinical Score [1]: 3.0 ± 0.8
- No. with EAE [1]: 5/6

SMILES: CCCCC/C=C\C/C=C\C/C=C\CCCCC(=O)OCC(COC(=O)CCCC/C=C\C/C=C\C/C=C\CCCCC)OC(=O)CCCC/C=C\C/C=C\C/C=C\CCCCC [TG-GLA, Triacylglycerol-GLA]
- Mean Clinical Score [1]: 1.0 ± 1.3^c
- No. with EAE [1]: 3/6
- Protective effect in CREAE (in words) ([1]; compared with borage oil): protective effects similar to that of the borage oil; also recorded: effective at a lower dose level than the borage oil

SMILES: CCCCC/C=C\C/C=C\CCCCCCCC(=O)O [linoleic acid]
- Incidence and severity of EAE [2]: partially suppresses the incidence and severity of EAE
- Duration and severity of relapses of multiple sclerosis [3]: relapses were less frequent, less severe and of shorter duration than controls
- Protection in acute rat EAE [4]: dose-dependent action on the clinical severity but did not abolish it

SMILES: CCCCC/C=C\C/C=C\C/C=C\CCCCC(=O)O [γ-linolenic acid]
- Protection in acute rat EAE [4]: fully protective
